In patent publication EP4230701A1, “4-STYRYL COUMARINS DERIVATIVES AS FLUORESCENT LABELS FOR BIOMOLECULES” (Universidade de Évora, priority 2022, dated 2023):
Values joined by “and” are separate entries in the source; they are usually repeats but may differ in a detail not shown here. Identical values can stand only once. Like-named read-outs stand apart in the source and are kept apart here.

Columns and labels:
Format in all cases: physicochemical
[1] = UV-Vis absorption spectra in acetonitrile; settings: for λabs: Absorption maxima in acetonitrile
Experimental: (§1) All starting materials and reagents were analytical grade, purchased from Aldrich and used without further purification. The organic solvents were dried over appropriate drying agents and distilled prior to use. UV-Vis absorption spectra were recorded on the Thermo Electron Spectrophotometer Corporation, model Nicolet Evolution 300, using acetonitrile (CH3CN) as solvent. Fluorescence spectra were recorded on a PerkinElmer Model LS 55 spectrophotometer. FTMS-ESI mass spectra were obtained on an Thermo Scientific Q Exactive Orbitrap Mass Spectrometer. Nuclear magnetic resonance (NMR) spectra were recorded at 400 MHz for ^1H NMR and at 100 MHz for ^13C NMR, on a Brucker Advance III spectrometer. For NMR spectra, deuterated chloroform (CDCl3) was used as solvent. The chemical shift (π) in ppm; coupling constants (J); relative intensity is indicated by the number of protons (H); multiplicities are indicated by singlet (s), doublet (d), double-doublet (dd), triplet (t), quadruple (q) and multiplet (m); coupling constants are given in Hertz (Hz).
as §1, with “400MHz” for “400 MHz”, “100MHz” for “at 100 MHz”, “^13C,” for “^13C NMR,”, “(CDCl3) or deuterated methanol (CD3OD)” for “(CDCl3)”, “(δ)” for “(π)”

[2] = Fluorescence emission spectra in acetonitrile; settings: Emission maxima in acetonitrile
Experimental: as §1
as §1, with “400MHz” for “400 MHz”, “100MHz” for “at 100 MHz”, “^13C,” for “^13C NMR,”, “(CDCl3) or deuterated methanol (CD3OD)” for “(CDCl3)”, “(δ)” for “(π)”

[3] = Fluorescence quantum yield in ethanol against 7-diethylamino-4-methylcoumarin as standard
[4] = Molar extinction coefficient at longest wavelength transition
[5] = Molar extinction coefficient at longest wavelength transition (Table 5)
[6] = Fluorescence quantum yield in ethanol, standard 7-diethylamino-4-methylcoumarin (ΦF = 0.73 in ethanol)

| SMILES | λabs [1] [nm] | ε [1, 4] [cm^-1M^-1] | ε [1, 5] [cm^-1m^-1] | λem [2] [nm] | ΦF [3, 6] | bathochromic shift ([1]; compared with its precursor (2)) | visible shoulder (lowest energy S0 → S1 transition) ([1]; experimental absorption spectrum) | ΦF [3] | bathochromic shift ([1]; compared with its precursor (1)) [nm] |
| --- | --- | --- | --- | --- | --- | --- | --- | --- | --- |
| CCN(CC)c1ccc2c(C)cc(=O)oc2c1 [Compound 1, 7-diethylamino-4-methylcoumarin, reference compound] | 371 | 22910 | 22910 | 434 | 0.73 |  |  |  |  |
| CCN(CC)c1ccc2c(c1)OC(=C(C#N)C#N)C=C2C [Compound 3, 2-(7-(diethylamino)-4-methyl-2H-chromen-2-ylidene)malononitrile] | 477 | 38000 |  | 519 | 0.05 | more than 100 nm |  |  |  |
| CCN(CC)c1ccc2c(c1)OC(=C(C#N)C#N)C=C2/C=C/c1ccc(C(=O)OC)cc1 [Compound 4] | 520 | 19000 |  | 620 | 0.04 and 0.08 |  |  |  |  |
| CCN(CC)c1ccc2c(c1)OC(=C(C#N)C#N)C=C2/C=C/c1ccccc1 [Compound 5] | 516 | 17000 |  | 603 | 0.16 |  |  |  |  |
| CCN(CC)c1ccc2c(c1)OC(=C(C#N)C#N)C=C2/C=C/c1ccc(N(C)C)cc1 [Compound 6, (E)-2-(7-(diethylamino)-4-(4-(dimethylamine)styryl)-2H-chromen-2ylidene)malononitrile] | 496 | 34000 |  | 597 |  |  | around 536 nm | 0.95 and 0.98 |  |
| CCN(CC)c1ccc2c(c1)OC(=C(C#N)C#N)C=C2/C=C/c1ccc(OC)cc1 [Compound 7, (E)-2-(7-(diethylamino)-4-(4-methoxystyryl)-2H-chromen-2-ylidene)malononitrile] | 522 | 24000 |  | 602 | 0.20 |  |  |  |  |
| CCN(CC)c1ccc2c(c1)OC(=C(C#N)C#N)C=C2/C=C/c1ccc(OCCCCCC(=O)O)cc1 [Compound 8, (E)-6-(4-(2-(2-(dicyanomethylene)-7-(diethylamino)-2H-chromen-4yl)vinyl)phenoxy)hexanoic acid] | 519 | 24000 |  | 596 | 0.28 |  |  |  |  |
| CCN(CC)c1ccc2c(c1)OC(=C(C#N)C#N)C=C2/C=C/c1ccc(OCCCCCC(=O)ON2C(=O)CCC2=O)cc1 [Compound 9, (E)-2,5-dioxopyrrolidin-1-yl 6-(4-(2-(2-(dicyanomethylene)-7-(diethylamino)-2Hchromen-4-yl)vinyl)phenoxy)hexanoate] | 523 | 24000 |  | 597 | 0.29 |  |  |  |  |
| CCN(CC)c1ccc2c(C)cc(=[N+]3CCCCC3)oc2c1.O=[N+]([O-])[O-] [Compound 10, 1-(7-(diethylamino)-4-methyl-2H-chromen-2-ylidene)-piperidin-1-ium nitrate] | 437 |  | 21000 | 490 | 0.14 |  |  |  | > 66 |
| CCN(CC)c1ccc2c(/C=C/c3ccc(C(=O)OC)cc3)cc(=[N+]3CCCCC3)oc2c1.O=[N+]([O-])[O-] [Compound 11, (E)-1-(7-(diethylamino)-4-(4-(methoxycarbonyl)styryl)-2H-chromen-2ylidene)piperidin-1-ium nitrate] | 484 | 18000 | 18000 | 609 | 0.08 |  |  |  |  |
| CCN(CC)c1ccc2c(/C=C/c3ccccc3)cc(=[N+]3CCCCC3)oc2c1.O=[N+]([O-])[O-] [Compound 12, (E)-1-(7-(diethylamino)-4-styryl-2H-chromen-2-ylidene)-piperidin-1-ium nitrate] | 467 |  | 17000 | 525 | 0.34 |  |  |  |  |
| CCN(CC)c1ccc2c(/C=C/c3ccc(N(C)C)cc3)cc(=[N+]3CCCCC3)oc2c1.O=[N+]([O-])[O-] [Compound 13, (E)-1-(7-(diethylamino)-4-(4-(dimethylamino)styryl)-2H-chromen-2ylidene)piperidin-1-ium nitrate] | 485 | 39000 | 39000 | 608 |  |  |  |  |  |
| CCN(CC)c1ccc2c(/C=C/c3ccc(OC)cc3)cc(=[N+]3CCCCC3)oc2c1.O=[N+]([O-])[O-] [Compound 14, (E)-1-(7-(diethylamino)-4-(4-methoxystyryl)-2H-chromen-2-ylidene)piperidin-1-ium nitrate] | 410 |  | 30000 | 578 |  |  |  |  |  |
| CCN(CC)c1ccc2c(/C=C/c3ccc(OCCCCCC(=O)O)cc3)cc(=[N+]3CCCCC3)oc2c1.O=[N+]([O-])[O-] [Compound 15, (E)-1-(4-(4-((5-carboxypentyl)oxy)styryl)-7-(diethylamino)-2H-chromen-2ylidene)piperidin-1-ium nitrate] | 406 |  | 30000 | 578 | 0.90 |  |  |  |  |
| CCN(CC)c1ccc2c(/C=C/c3ccc(OCCCCCC(=O)ON4C(=O)CCC4=O)cc3)cc(=[N+]3CCCCC3)oc2c1.O=[N+]([O-])[O-] [Compound 16, (E)-1-(7-(diethylamino)-4-(4-((6-((2,5-dioxopyrrolidin-1-yl)oxy)-6oxohexyl)oxy)styryl)-2H-chromen-2-ylidene)piperidin-1-ium nitrate] | 404 |  | 30000 | 577 | 0.92 |  |  |  |  |
